Laboratory results: patent publication US20100120789A1, “Compound” (priority 2005, published 2010)

| melting point | SMILES |
| --- | --- |
| 121 to 125 °C | O=C(CC12CC3CC(CC(C3)C1)C2)N1CCc2sccc2C1 |
| 88 to 91 °C | CN(Cc1cccs1)C(=O)C12CC3CC(CC(O)(C3)C1)C2 |
| 59 to 60 °C | CN(CCc1ccccn1)C(=O)CC12CC3CC(CC(C3)C1)C2 |
| 187 to 188 °C | O=C(CC12CC3CC(CC(C3)C1)C2)NCc1ccc(-c2ccccn2)s1 |
| 66 to 68 °C | CN(Cc1cn(C23CC4CC(CC(C4)C2)C3)nn1)Cc1cccs1 |
| 198 to 199 °C | O=S(=O)(Cc1cn(C23CC4CC(CC(C4)C2)C3)nn1)c1cc(Cl)ccc1Cl |
| 201 to 203 °C | CN(CC(=O)C12CC3CC(CC(C3)C1)C2)Cc1cccs1.Cl |
| 144 to 145 °C | COc1cc2c(cc1OCc1ccccc1)CCN(C(=O)C13CC4CC(CC(C4)C1)C3)C2 |
| 133 to 135 °C | COc1cc2c(cc1OCc1ccccc1)CCN(C(=O)CC13CC4CC(CC(C4)C1)C3)C2 |
| 224 to 228 °C | COc1cc2c(cc1O)CCN(C(=O)C13CC4CC(CC(C4)C1)C3)C2 |
| 169 to 172 °C | COc1cc2c(cc1O)CCN(C(=O)CC13CC4CC(CC(C4)C1)C3)C2 |
| 151 to 155 °C | COc1cc2c(cc1OC)CN(C(=O)C13CC4CC(CC(C4)C1)C3)CC2 |
| 165 to 167 °C | COc1cc2c(cc1OC)CN(C(=O)CC13CC4CC(CC(C4)C1)C3)CC2 |
| 116 to 120 °C | Cc1nc2cc(NCC(=O)C3(C)CC3)ccc2s1 |
| 150 to 153 °C | O=C(NCc1ccc(Cl)cc1)C12CC3CC(CC(C3)C1)C2 |
| 137 to 140 °C | Cc1ccc(CNC(=O)C23CC4CC(CC(C4)C2)C3)cc1 |
| 166 to 168 °C | O=C(CC12CC3CC(CC(C3)C1)C2)NCc1ccc(Cl)cc1 |
| 139 to 142 °C | Cc1ccc(CNC(=O)CC23CC4CC(CC(C4)C2)C3)cc1 |
| 75 to 76 °C | CN(Cc1ccc(Cl)cc1)C(=O)CC12CC3CC(CC(C3)C1)C2 |
| 103 to 105 °C | CCN(Cc1cccs1)C(=O)C12CC3CC(CC(C3)C1)C2 |
| 112 to 115.5 °C | O=C(N(Cc1cccs1)CC1CCCCC1)C12CC3CC(CC(C3)C1)C2 |
| 134 to 136 °C | O=C(CC12CC3CC(CC(C3)C1)C2)N1CCN(c2ccccn2)CC1 |
| 156 to 158 °C | CC(C)N(Cc1cccs1)C(=O)C12CC3CC(CC(C3)C1)C2 |
| 51 to 53 °C | CN(Cc1cccs1)C(=O)CSC12CC3CC(CC(C3)C1)C2 |

| melting point | SMILES |
| --- | --- |
| 141.5 to 143 °C | O=C(N1CCN(Cc2ccc(Cl)cc2)CC1)C12CC3CC(CC(C3)C1)C2 |
| 185 to 187 °C | Cc1cccc(CN2CCN(C(=O)C34CC5CC(CC(C5)C3)C4)CC2)c1 |
| 73 to 75.5 °C | CSc1ccc(CN(C)C(=O)C23CC4CC(CC(C4)C2)C3)s1 |
| 120 to 122 °C | CN(Cc1cccs1)C(=O)CS(=O)(=O)C12CC3CC(CC(C3)C1)C2 |
| 126 to 129 °C | Cc1cccc(NC(=O)CS(=O)(=O)C23CC4CC(CC(C4)C2)C3)n1 |
| 211 to 211.5 °C | CNC(=O)c1ccc(CN(C)C(=O)C23CC4CC(CC(C4)C2)C3)s1 |
| 123 to 124 °C | Cc1c(C(=O)CSCc2ccc(Cl)cc2)sc2ccc(Cl)cc12 |
| 145 to 146 °C | CN(C)C(=O)c1ccc(CN(C)C(=O)C23CC4CC(CC(C4)C2)C3)s1 |
| 173.5 to 175.5 °C | CC(=O)Nc1ccc([S+]([O-])CC(=O)C23CC4CC(CC(C4)C2)C3)cc1 (stereo not shown) |
| 155.5 to 157 °C | Cc1ccc(CNC(=O)C2CCN(C(=O)C34CC5CC(CC(C5)C3)C4)CC2)cc1 |
| 127.7 °C | CC(C)(C)c1ccc(CS(=O)(=O)CC(=O)C23CC4CC(CC(C4)C2)C3)cc1 |
| 132.8 °C | Cc1cccc(CS(=O)(=O)CC(=O)C23CC4CC(CC(C4)C2)C3)c1 |
| 128.7 °C | COC(=O)c1ccc(OCC(=O)C23CC4CC(CC(C4)C2)C3)cc1 |
| 84.5 °C | COC(=O)c1cccc(OCC(=O)C23CC4CC(CC(C4)C2)C3)c1 |
| 145.6 °C | O=C(NCc1ccccc1)c1ccc(OCC(=O)C23CC4CC(CC(C4)C2)C3)cc1 |
| 88.7 °C | COC(=O)c1ccc(COCC(=O)C23CC4CC(CC(C4)C2)C3)cc1 |
| 184.3 °C | O=C(Nc1ccccc1)c1ccc(OCC(=O)C23CC4CC(CC(C4)C2)C3)cc1 |
| 162.2 °C | O=C(NCc1ccco1)c1ccc(OCC(=O)C23CC4CC(CC(C4)C2)C3)cc1 |
| 73.5 to 75 °C | CN(Cc1ccc(Cl)s1)C(=O)CC12CC3CC(CC(C3)C1)C2 |
| 98 to 100 °C | O=C(CC12CC3CC(CC(C3)C1)C2)N1CCN(C(=O)c2ccco2)CC1 |
| 204 to 206 °C | CC(=O)Nc1ccc(OCC(=O)C23CC4CC(CC(C4)C2)C3)cc1Cl |
| 153.4 °C | O=C(Cc1ccc(OCC(=O)C23CC4CC(CC(C4)C2)C3)cc1)Nc1ccccc1 |
| 197 to 198 °C | O=S(=O)(NCC12CC3CC(CC(C3)C1)C2)c1cc(Cl)ccc1Cl [STX1369, N-Adamantan-1-ylmethyl-2,5-dichloro-benzenesulfonamide] |

| SMILES | melting point |
| --- | --- |
| CCCc1ccc(S(=O)(=O)NC23CC4CC(CC(C4)C2)C3)cc1 [STX1341, N-Adamantan-1-yl-4-propyl-benzenesulfonamide] | 178 to 178.5 °C |
| O=S(=O)(NC12CC3CC(CC(C3)C1)C2)c1cc(Cl)ccc1Cl [STX1342, N-Adamantan-1-yl-2,5-dichloro-benzenesulfonamide] | 189 to 190 °C |
| Cc1c(Cl)cccc1S(=O)(=O)NC12CC3CC(CC(C3)C1)C2 [STX1343, N-Adamantan-1-yl-3-chloro-2-methyl-benzenesulfonamide] | 197.5 to 198 °C |
| O=S(=O)(NC12CC3CC(CC(C3)C1)C2)c1ccc(-c2ccccc2)cc1 [STX1344, Biphenyl-4-sulfonic acid adamantan-1-ylamide] | 205 to 205.5 °C |
| CCCc1ccc(S(=O)(=O)NCC23CC4CC(CC(C4)C2)C3)cc1 [STX1368, N-Adamantan-1-ylmethyl-4-propyl-benzenesulfonamide] | 148 to 149 °C |
| Cc1c(Cl)cccc1S(=O)(=O)NCC12CC3CC(CC(C3)C1)C2 [STX1370, N-Adamantan-1-ylmethyl-3-chloro-2-methyl-benzenesulfonamide] | 183 to 184 °C |
| O=S(=O)(NCC12CC3CC(CC(C3)C1)C2)c1ccc(-c2ccccc2)cc1 [STX1371, Biphenyl-4-sulfonic acid (adamantan-1-ylmethyl)-amide] | 188 to 189.5 °C |
| Cc1nc2c(NC(=O)C34CC5CC(CC(C5)C3)C4)c(C)ccc2s1 [STX1372, Adamantane-1-carboxylic acid (2,5-dimethyl-benzothiazol-4-yl)-amide] | 183.5 to 185 °C |
| Cc1nc2c(Cl)c(NC(=O)C34CC5CC(CC(C5)C3)C4)ccc2s1 [STX1373, Adamantane-1-carboxylic acid (4-chloro-2-methyl-benzothiazol-5-yl)-amide] | 183.5 to 185.5 °C |
| O=C(NCc1cccs1)C12CC3CC(CC(C3)C1)C2 [STX1374, Adamantane-1-carboxylic acid (thiophen-2-ylmethyl)-amide] | 155 to 155.5 °C |
| O=C(NCCc1cccs1)C12CC3CC(CC(C3)C1)C2 [STX1375, Adamantane-1-carboxylic acid (2-thiophen-2-yl-ethyl)-amide] | 123 to 126 °C |
| O=S(=O)(NC12CC3CC(CC(C3)C1)C2)c1cccs1 [STX1573, Thiophene-2-sulfonic acid adamantan-1-ylamide] | 129 to 131 °C |
| CC(C)(C)CC(=O)NCc1cccs1 [STX1639, 3,3-Dimethyl-N-thiophen-2-ylmethyl-butyramide] | 83 to 84 °C |
| CC(C(=O)NCc1cccs1)(c1ccccc1)c1ccccc1 [STX1640, 2,2-Diphenyl-N-thiophen-2-ylmethyl-propionamide] | 90 to 91 °C |
| CC1(C(=O)NCc2cccs2)CC1 [STX1641, 1-Methyl-cyclopropanecarboxylic acid (thiophen-2-yl methyl)-amide] | 70 to 71 °C |
| CC1(C(=O)NCc2cccs2)CCCCC1 [STX1642, 1-Methyl-cyclohexanecarboxylic acid(thiophen-2-ylmethyl)-amide] | 72 to 73 °C |
| O=C(NCCc1cccs1)C12CC3CC(CC1C3)C2 [STX1656, Hexahydro-2,5-methano-pentalene-3a-carboxylic acid(2-thiophen-2-yl-ethyl)-amide] | 113 to 114 °C |
| CC12CC3CC(C)(C1)CC(C(=O)NCc1cccs1)(C3)C2 [STX1671, 3,5-Dimethyl-adamantane-1-carboxylic acid(thiophen-2-ylmethyl)-amide] | 101 to 103 °C |
| CC12CC3CC(C)(C1)CC(C(=O)NCCc1cccs1)(C3)C2 [STX1672, 3,5-Dimethyl-adamantane-1-carboxylic acid(2-thiophen-2-yl-ethyl)-amide] | 131 to 132 °C |
| CC(C)(C)C(=O)NCc1cccs1 [STX1673, 2,2-Dimethyl-N-thiophen-2-ylmethyl-propionamide] | 64 to 65 °C |
| CC(C)(C)C(=O)NCCc1cccs1 [STX1674, 2,2-Dimethyl-N-(2-thiophen-2-yl-ethyl)-propionamide] | 79 to 80 °C |
| O=C(NCCc1cccs1)C12CC3CC(CC(O)(C3)C1)C2 [STX1676, 3-Hydroxy-adamantane-1-carboxylic acid(2-thiophen-2-yl-ethyl)-amide] | 118 to 119 °C |
| O=C(COCc1cccs1)C12CC3CC(CC(C3)C1)C2 [STX1692, 1-Adamantan-1-yl-2-(thiophen-2-ylmethoxy)-ethanone] | 57.2 to 58.3 °C |
| O=C(NCCc1cccs1)[C@H]1CC2C=CC1C2 (stereo partly drawn) [STX1707, Bicyclo[2.2.1]hept-5-ene-2-carboxylic acid(2-thiophen-2-yl-ethyl)-amide (exo)] | 71 to 72 °C |
| O=C(NCCc1cccs1)[C@@H]1CC2C=CC1C2 (stereo partly drawn) [STX1708, Bicyclo[2.2.1]hept-5-ene-2-carboxylic acid(2-thiophen-2-yl-ethyl)-amide (endo)] | 122 to 124 °C |
| CN(Cc1cccs1)C(=O)[C@H]1CC2C=CC1C2 (stereo partly drawn) [STX1709, Bicyclo[2.2.1]hept-5-ene-2-carboxylic acid methyl-thiophen-2-ylmethyl-amide (exo)] | 74 to 75 °C |
